Key:
Type in all cases: biochemical
[1] = target: T1, α-glucosidase (Saccharomyces cerevisiae, Sigma G5003); assay: p-nitrophenol release at […] nm, microplate; settings: PNPG (20 μL of 5 mM), PBS pH 7.4, 37 °C, 5 min pre-incubation; error is SE; read-out: α-Glucosidase IC50 (SE) (mg/mL, μM†)
T1 construct: gene MAL12; commercial yeast enzyme preparation (Sigma)

[2] = target: T1, α-glucosidase (Saccharomyces cerevisiae, Sigma G5003); assay: p-nitrophenol release at […] nm, progress curves at several PNPG and inhibitor concentrations; settings: PNPG 1-15 mM, pH 7.4, 37 °C, unreliable: b44 prints another KI, Ki unit not printed (doses in μM)
[3] = test system: T1, α-glucosidase (Saccharomyces cerevisiae, Sigma G5003); assay: p-nitrophenol release at […] nm, initial PNPG varied; settings: no inhibitor; PBS pH 7.4, 37 °C; error is SE

Row | Compound | IC50 [1] | Ki ([2]; competitive in table, non-competitive in abstract) | Ki ([2]; non-competitive in table, competitive in abstract) | Km [3]
1 | C[C@@H]1O[C@@H](OC[C@H]2O[C@@H](Oc3c(-c4ccc(O)cc4)oc4cc(O)cc(O)c4c3=O)[C@H](O)[C@@H](O)[C@@H]2O)[C@H](O)[C@H](O)[C@H]1O [compound 1, Nicotiflorin] | 159 µM | – | – | –
2 | C[C@@H]1O[C@H](O[C@@H]2[C@@H](O)[C@H](O)[C@@H](COc3ccc(-c4oc5cc(O)cc(O)c5c(=O)c4O)cc3O)O[C@H]2O)[C@H](O)[C@H](O)[C@H]1O [compound 4, quercetin-4’-O-(2-O-β-rhamno-pyranosyl-6-β-glucopyranoside)] | 9.66 µM | 3.92 (1.48) | – | –
3 | C[C@@H]1O[C@H](OC[C@H]2O[C@@H](Oc3c(-c4ccc(O)c(O)c4)oc4cc(O)cc(O)c4c3=O)[C@H](O[C@H]3O[C@@H](C)[C@H](O)[C@@H](O)[C@H]3O)[C@@H](O)[C@@H]2O)[C@H](O)[C@H](O)[C@H]1O [compound 5, quercetin-3-O-(2,6-di-O-β,β-rhamno-pyranosyl-β-glucopyranoside)] | 16.9 µM | – | 12.29(1.58) | –
4 | O=[N+]([O-])c1ccc(O[C@H]2O[C@H](CO)[C@@H](O)[C@H](O)[C@H]2O)cc1 [p-Nitrophenyl-α-D-glucopyranoside] | – | – | – | 986 µM
